According to patent publication US20090239841A1, “Diaryl Ureas as CB1 Antagonists” (priority 2004, published 2009):

What follows are compounds tested against T1, hCB1 (Homo sapiens, UniProt P21554) (assay: Agonist-induced GTP binding (GTPγ35S) assay at CB1, Example 8). Details: IC50 at CB1, determined as described in Example 8; read-out: IC50.
T1 construct: made in house; host or cells: Sf9 insect cells (baculovirus), P2 membranes
Type: biochemical
From the text: As noted above, compounds provided herein are CB1 antagonists. Certain such compounds are non-competitive CB1 antagonists. In addition, or alternatively, certain compounds provided herein display CB1 specificity. CB1 antagonist activity may be confirmed using an agonist-induced GTP binding assay, such as the assay described in Example 8. Such assays employ a CB1-containing cell membrane preparation (e.g., a preparation of membranes of insect cells that recombinantly express CB1) to determine the effect of a test compound on CB1 agonist-induced GTP binding to CB1. Briefly, a first cell membrane preparation comprising CB1 is contacted with: (i) labeled GTP; (ii) a CB1 agonist; and (iii) a test compound to yield a test membrane preparation. Simultaneously, or in either order, a second cell membrane preparation comprising CB1 is contacted with: (i) labeled GTP; and (ii) a CB1 agonist to yield a control membrane preparation. The labeled GTP is preferably GTPγ^35S; a representative CB1 agonist is CP55,940. Such contact is performed under conditions that are suitable for GTP binding to CB1, such as the conditions described in Example 8. The concentrations of labeled GTP and CB1 agonist used are generally concentrations that are sufficient to result in a detectable increase in the amount of labeled GTP bound to the membrane preparation in the presence of CB1 agonist. Such concentrations may be determined by routine experimentation; representative suitable concentrations are provided in Example 8. Generally, a range of test compound concentrations is used (e.g., ranging from 10^−10M to 10^−5M).
After sufficient contact (e.g., incubation) to allow GTP binding to the membrane preparations, a signal that corresponds to (represents) the amount of bound, labeled GTP is detected (typically, unbound labeled GTP is first removed via a washing step). In other words, simultaneously or in either order: (i) a test signal that represents an amount of bound, labeled GTP in the test membrane preparation is detected; and (ii) a control signal that represents an amount of bound, labeled GTP in the control membrane preparation is detected. The nature of the signal detected is determined by the type of label used. For example, if the GTP is radioactively labeled, the signal detected is radioactive decay (e.g., via liquid scintillation spectrometry). The CB1 antagonist activity of the test compound is then determined by comparing the test signal with the control signal.
This assay can also be used to detect partial agonism mediated by antagonist compounds. A compound being analyzed in this assay is referred to herein as a “test compound.” Agonist-stimulated GTP binding activity is measured as follows: Four independent baculoviral stocks (one directing the expression of hCB1 and three directing the expression of each of the three subunits of a heterotrimeric G-protein) are used to infect a culture of Sf9 cells as described in Example 5.
Agonist-stimulated GTP binding on purified membranes (as described in Example 6) is initially assessed using the cannabinoid agonist CP55,940 to ascertain that the receptor/G-protein-alpha-beta-gamma combination(s) yield a functional response as measured by GTP binding.
P2 membranes are resuspended by Dounce homogenization (tight pestle) in GTP binding assay buffer (50 mM Tris pH 7.4, 120 mM NaCl, 5 mM MgCl2, 2 mM EGTA, 0.1% BSA, 0.1 mM bacitracin, 10 KIU/mL aprotinin, 5 μM GDP) and added to reaction tubes at a concentration of 10 μg protein/reaction tube. After adding increasing doses of the agonist CP55,940 at concentrations ranging from 10^−12 M to 10^−6 M, reactions are initiated by the addition of […] GTPγ^35S. In competition experiments, non-radiolabeled test compounds are added to separate assays at concentrations ranging from 10^−10 M to 10^−5 M along with 1 nM CP55,940 to yield a final volume of 0.25 mL. […]

T1 sequence (P21554 whole entry): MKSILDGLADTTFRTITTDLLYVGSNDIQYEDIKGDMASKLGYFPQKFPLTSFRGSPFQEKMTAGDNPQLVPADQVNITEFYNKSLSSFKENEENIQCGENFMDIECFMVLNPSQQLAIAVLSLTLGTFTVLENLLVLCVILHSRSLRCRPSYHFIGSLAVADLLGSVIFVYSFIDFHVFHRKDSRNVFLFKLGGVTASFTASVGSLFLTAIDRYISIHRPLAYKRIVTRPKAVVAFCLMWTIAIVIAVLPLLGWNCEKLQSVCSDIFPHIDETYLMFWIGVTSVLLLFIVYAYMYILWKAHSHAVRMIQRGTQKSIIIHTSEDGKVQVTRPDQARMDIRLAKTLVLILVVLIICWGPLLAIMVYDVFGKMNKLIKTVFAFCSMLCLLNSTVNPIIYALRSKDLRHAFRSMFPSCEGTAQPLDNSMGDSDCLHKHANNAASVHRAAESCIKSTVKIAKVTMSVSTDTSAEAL

Compound	IC50 [nM]
CC(C)c1ccc(NC(=O)Nc2ccc(Cl)cc2)cc1 [Compound 333, 1-(4-chlorophenyl)-3-(4-isopropylphenyl)urea]	< 2000
O=C(Nc1ccc(F)cc1)Nc1ccc2c(c1)CCC2 [Compound 432, 1-(2,3-dihydro-1H-inden-5-yl)-3-(4-fluorophenyl)urea]	< 2000
CCOC(=O)c1ccc(NC(=O)Nc2ccc(C)cc2)cc1 [Compound 474, ethyl 4-({[(4-methylphenyl)amino]carbonyl}amino)benzoate]	< 2000
CCc1ccc(NC(=O)Nc2ccc(OC)cc2)cc1 [Compound 382, 1-(4-ethylphenyl)-3-(4-methoxyphenyl)urea]	< 2000
CCCc1ccc(NC(=O)Nc2ccc(C)cc2)cc1 [Compound 293, N-(4-methylphenyl)-N′-(4-propylphenyl)urea]	< 2000
CC(C)OC(=O)c1ccc(NC(=O)Nc2ccc(F)cc2)cc1 [Compound 480, isopropyl 4-({[(4-fluorophenyl)amino]carbonyl}amino)benzoate]	< 2000
N#CCc1ccc(NC(=O)Nc2ccc(OC(F)F)cc2)cc1 [Compound 581, 1-[4-(cyanomethyl)phenyl]-3-[4-(difluoromethoxy)phenyl]urea]	< 2000
CCOC(=O)c1ccc(NC(=O)Nc2cccc(C(=O)OCC)c2)cc1 [Compound 722, ethyl 3-[({[4-(ethoxycarbonyl)phenyl]amino}carbonyl)amino] benzoate]	< 2000
CCc1ccc(NC(=O)Nc2cc(F)cc(F)c2)cc1 [Compound 657, 1-(3,5-difluorophenyl)-3-(4-ethylphenyl)urea]	< 2000
COCc1ccc(NC(=O)Nc2ccc(OC(F)F)cc2)cc1 [Compound 533, 1-[4-(difluoromethoxy)phenyl]-3-[4-(methoxymethyl)phenyl]urea]	< 2000
Cc1ccc(NC(=O)Nc2ccc(N3CCCCC3)cc2)cc1 [Compound 322, 1-(4-methylphenyl)-3-(4-piperidin-1-ylphenyl)urea]	< 2000
COC(=O)c1cccc(NC(=O)Nc2ccc(CC#N)cc2)c1 [Compound 712, methyl 3-[({[4-(cyanomethyl)phenyl]amino}carbonyl)amino]benzoate]	< 2000
COc1ccc(NC(=O)Nc2ccc(CC#N)cc2)cc1 [Compound 586, 1-[4-(cyanomethyl)phenyl]-3-(4-methoxyphenyl)urea]	< 2000
CCc1ccc(NC(=O)Nc2cccc([N+](=O)[O-])c2)cc1 [Compound 527, 1-(4-ethylphenyl)-3-(3-nitrophenyl)urea]	< 2000
CCOC(=O)c1ccc(NC(=O)Nc2ccc(C(C)C)cc2)cc1 [Compound 602, ethyl 4-({[(4-isopropylphenyl)amino]carbonyl}amino)benzoate]	< 2000
CCC(=O)c1ccc(NC(=O)Nc2cccc(C(=O)OC)c2)cc1 [Compound 720, methyl 3-({[(4-propionylphenyl)amino]carbonyl}amino)benzoate]	< 2000
CCCOc1ccc(NC(=O)Nc2ccc(C(C)C)cc2)cc1 [Compound 573, 1-(4-isopropylphenyl)-3-(4-propoxyphenyl)urea]	< 2000
COC(=O)c1ccc(NC(=O)Nc2ccc(OCC#N)cc2)cc1 [Compound 717, methyl 4-[({[4-(cyanomethoxy)phenyl]amino}carbonyl)amino] benzoate]	< 2000
CCCc1ccc(NC(=O)Nc2cccc(Cl)c2)cc1 [Compound 335, 1-(3-chlorophenyl)-3-(4-propylphenyl)urea]	< 2000
CCOC(=O)c1cccc(NC(=O)Nc2ccc(CCO)cc2)c1 [Compound 753, ethyl 3-[({[4-(2-hydroxyethyl)phenyl]amino}carbonyl)amino] benzoate]	< 2000

Other lines, results leading:

IC50 [nM]	Compound
< 2000	Cc1cccc(NC(=O)Nc2cccc(OC(C)C)c2)c1 [Compound 297, 1-(3-isopropoxyphenyl)-3-(3-methylphenyl)urea]
< 2000	Cc1ccc(NC(=O)Nc2ccc(F)cc2)cc1F [Compound 430, 1-(3-fluoro-4-methylphenyl)-3-(4-fluorophenyl)urea]
< 2000	Cc1ccc(NC(=O)Nc2ccc(OCC#N)cc2)cc1F [Compound 730, 1-[4-(cyanomethoxy)phenyl]-3-(3-fluoro-4-methylphenyl)urea]
< 2000	CCOC(=O)c1cccc(NC(=O)Nc2ccc(C)c(F)c2)c1 [Compound 766, ethyl 3-({[(3-fluoro-4-methylphenyl)amino]carbonyl}amino)benzoate]
< 2000	CCOc1cccc(NC(=O)Nc2ccc(C)c(F)c2)c1 [Compound 681, 1-(3-ethoxyphenyl)-3-(3-fluoro-4-methylphenyl)urea]
< 2000	CCOC(=O)c1cccc(NC(=O)Nc2ccc(OC(C)C)cc2)c1 [Compound 674, ethyl 3-({[(4-isopropoxyphenyl)amino]carbonyl}amino)benzoate]
< 2000	Cc1ccc(NC(=O)Nc2ccc(Cl)nc2)cc1C [Compound 780, 1-(6-chloropyridin-3-yl)-3-(3,4-dimethylphenyl)urea]
< 2000	CCOc1ccc(NC(=O)Nc2cccc(F)c2)cc1 [Compound 357, 1-(4-ethoxyphenyl)-3-(3-fluorophenyl)urea]

Same assay, conditions: Table I; IC50 at CB1, GTP binding with 1 nM CP55,940; read-out: IC50

IC50 [nM]	Compound
< 2000	COc1cc(NC(=O)Nc2ccc(OC(F)F)cc2)ccc1OC(F)F [Compound 6, N-[4-(difluoromethoxy)-3-methoxyphenyl]-N′-[4-(difluoromethoxy)phenyl]urea]
< 2000	CCc1ccc(NC(=O)Nc2cccc(OC(C)C)c2)cc1 [Compound 23, N-(4-ethylphenyl)-N′-(3-isopropoxyphenyl)urea]
< 2000	Cc1nccc(-c2cccc(NC(=O)Nc3ccc(OC(F)F)cc3)c2)n1 [Compound 10, N-[4-(difluoromethoxy)phenyl]-N′-[3-(2-methylpyrimidin-4-yl)phenyl]urea]

Same assay, conditions: Table II; IC50 at CB1, GTP binding with 1 nM CP55,940; read-out: IC50

Compound	IC50 [nM]
O=C(Nc1ccc(Cl)cc1)Nc1ccc(OC(F)F)cc1 [Compound 257, N-(4-chlorophenyl)-N′-[4-(difluoromethoxy)phenyl]urea]	< 2000
O=C(Nc1ccc(OC(F)F)cc1)Nc1ccc(-c2ccccc2)cc1 [Compound 99, N-biphenyl-4-yl-N′-[4-(difluoromethoxy)phenyl]urea]	< 2000
COc1ccc(NC(=O)Nc2ccc(OC(F)F)cc2)cc1OC1CCCC1 [Compound 84, N-[3-(cyclopentyloxy)-4-methoxyphenyl]-N′-[4-(difluoromethoxy)phenyl]urea]	< 2000
N#Cc1ccc(NC(=O)Nc2cccc(OC(F)F)c2)cc1 [Compound 283, N-(4-cyanophenyl)-N′-[3-(difluoromethoxy)phenyl]urea]	< 2000
O=C(Nc1ccc(F)cc1)Nc1ccc(OC(F)F)cc1 [Compound 221, N-[4-(difluoromethoxy)phenyl]-N′-(4-fluorophenyl)urea]	< 2000

Now from value to compound:

IC50 [nM]	Compound
< 2000	CC(C)Oc1ccc(NC(=O)Nc2cccc(F)c2)cc1 [Compound 215, N-(3-fluorophenyl)-N′-(4-isopropoxyphenyl)urea]
< 2000	CCCc1ccc(NC(=O)Nc2cccc(C)c2)cc1 [Compound 154, N-(3-methylphenyl)-N′-(4-propylphenyl)urea]
< 2000	CCOc1cccc(NC(=O)Nc2cccc(C#N)c2)c1 [Compound 262, N-(3-cyanophenyl)-N′-(3-ethoxyphenyl)urea]
< 2000	CCOc1ccc(NC(=O)Nc2ccc(F)cc2)cc1 [Compound 206, N-(4-ethoxyphenyl)-N′-(4-fluorophenyl)urea]
